The nature of data set [1]: Open label two way randomized crossover pharmacokinetic / absolute bioavailability study, SL ketamine wafer 25 mg vs 10 mg i.v. infusion. The settings on record: for clearance: CL, clearance following i.v. administration; for bioavailability: other: sublingual, F; for half-life: median (min-max in text) of eight healthy volunteers; for extrapolated portion of the AUC(0,∞): min-max. The method, then:
The study was of open label two way randomized, crossover design in eight healthy male volunteers who all gave written informed consent. Each participant received either a single 10 mg i.v. dose as a constant rate 30 min infusion or a 25 mg SL dose of ketamine in two treatment periods with a 7 day washout. Both the SL and i.v. doses, and the duration of the i.v. infusion were chosen to ensure adequate characterization of the plasma concentration-time profiles and good quality estimates of pharmacokinetic (PK) variables for both routes of administration. […] The sequence of the two formulations was according to a computer-generated randomization code.
The SL wafer formulation was a freeze dried solid dispersion of racemic ketamine hydrochloride in a porous matrix using lactose as a filling agent. Prior to administration of the wafer the sublingual space was rinsed with 3 ml of water after which the wafer was placed sublingually by a member of the study staff. The participants were instructed to avoid chewing or swallowing of the wafer within 5 min of its placement. For i.v. administration, commercially available ketamine (Ketalar®) was diluted to 30 ml in saline and administered over 30 min using a volumetrically controlled syringe driver. The infusion line was primed prior to start of the infusion.
Pharmacokinetic blood sampling and clinical assessment of local tolerability and safety were carried out for 24 h following both dosing occasions.
Key inclusion criteria were healthy adult males aged 18-65 years with a BMI 19-30 kg m^−2 in good general health including mental health as assessed by the Symptom Checklist-90-R (SCL-90-R®), a screening instrument which evaluates a broad range of psychological problems and symptoms of psychopathology. Pharmacokinetic blood samples (5 ml), were taken following both i.v. and SL administration at predose 5, 10, 15, 30, 35 and 45 min, and at 1.0, 1.5, 2.0, 2.5, 3.0, 4.0, 6.0, 8.0,12 and 24 h post-dose.
Whole blood was drawn into prechilled lithium heparin tubes and remained on ice post-sample collection until centrifugation. Samples were centrifuged at 1800 g for 10 min in a refrigerated centrifuge at 4° C. Plasma was decanted and frozen at-80° C.
Safety laboratory testing (biochemistry, haematology and urinalysis) was performed predose and at hour 24 post-dose administration in each period. Quantification of the plasma concentrations of racemic ketamine was performed using a validated HPLC method with u.v. detection, a lower limit of quantification (LLOQ) of 2 ng ml^−1 and <20% bias and imprecision.
Standard non-compartmental methods using the PK Solver plug-in for Microsoft
Excel were used to derive pharmacokinetic variables, except for Cmax, Tmax and Tlast, which were taken as observations from the plasma concentration-time profile of each participant. Actual times were used when reporting Tmax. The terminal rate constant (λz) was estimated by log-linear regression, of the slope of the natural log plasma concentration vs. time curve where λz=−1×slope. The linear regression in the terminal phase used the last three to six data points. The terminal t1/2 was calculated as t1/2=ln(2)/λz.
The area under the plasma concentration time curve from time zero to the last quantifiable concentration (AUC(0,tlast)) was obtained using the linear trapezoidal method and extrapolated to infinity to obtain the total area, AUC(0,∞), with Clast/λz, where Clast is the last quantifiable plasma concentration.

The nature of data set [2]: Clinical assessment of local tolerability and safety in the crossover study. The class given is in vivo, human. The method, then: To assess the local tolerability profile of the SL formulation, modified Likert scales (0-10) were recorded at 5, 10, 15, 30 and 45 min and 1 h post-dose administration at various time points for both the SL and i.v. formulation: • Mucosal irritation • Burning sensation • Bitterness • Nausea • Residual grittiness in the mouth
Safety assessments included scheduled adverse event probes, spontaneous adverse event (AE) reporting, physical examination, routine laboratory investigations, ECGs and vital sign evaluation.
Vital signs (including systolic and diastolic blood pres-sure, pulse, respiratory rate and body temperature) were performed predose and at hours 0.5, 1, 2, 4, 6, 8, 12 and 24 h post-dose. Pulse oximetry was recorded predose and continuously for the first 3 h post-dose administration

For data set [3] the following is noted: sublingually administered ketamine; cited from earlier work.
For data set [4] the following is noted: cited from earlier work.
Data set [5] concerns treatment-resistant major depressed patients. The settings on record: cited from earlier work.
Data set [6] deals with mouse tests of antidepressant efficacy. The settings on record: up to a 30-fold range of doses, multiple mouse tests; cited from earlier work.
Another data set deals with NMDA receptors. The settings on record: cited from earlier work.
Setting [7] is: individual subjects, 10 mg as 30 min i.v. infusion.
[8] abbreviates: individual subjects, 25 mg sublingually as a wafer.
The mark [9] stands for this setting: both routes (10 mg i.v., 25 mg SL).
The mark [10] stands for this setting: i.v. infusion, treatment-resistant major depressed patients.

Values joined by “and” are separate entries in the source; they are usually repeats but may differ in a detail not shown here. Equal values may be shown once. Where only a bound is given, the exact number is not on record here.

Data on four compounds can be found in patent US20240350434A1, “METHODS FOR TREATING MAJOR DEPRESSIVE DISORDER AND TREATMENT-RESISTANT DEPRESSION” (iX Biopharma Limited, priority 2020, published 2024).

For `CNC1(c2ccccc2Cl)CCCCC1=O` (racemic) [RS ketamine, ketamine], the “Cmax, peak plasma concentration (i.v.)” value is 128.1 ng/ml^−1 in data set [1] (Gmean of eight healthy volunteers, 10 mg as 30 min i.v. infusion); 124.2 ng/ml^−1 and 120.4 ng/ml^−1 and 101.9 ng/ml^−1 and 83.2 ng/ml^−1 and 81.1 ng/ml^−1 and 226.7 ng/ml^−1 and 166.3 ng/ml^−1 and 160.3 ng/ml^−1 in data set [1] (individual subjects, 10 mg as 30 min i.v. infusion, healthy volunteers). For the same compound, the “Cmax, peak plasma concentration (SL)” value is 71.1 ng/ml^−1 in data set [1] (Gmean of eight healthy volunteers, 25 mg sublingually as a wafer); 60.2 ng/ml^−1 and 50.0 ng/ml^−1 and 75.1 ng/ml^−1 and 51.8 ng/ml^−1 and 61.2 ng/ml^−1 and 88.8 ng/ml^−1 and 128.3 ng/ml^−1 and 76.7 ng/ml^−1 in data set [1] (individual subjects, 25 mg sublingually as a wafer, healthy volunteers). In addition, the “first quantifiable ketamine plasma concentrations observed at” value in data set [1] (all participants, both administration routes (i.v. and SL), first post-dose sample) is on record as 5 min. Also, the AUC(0-inf) in data set [1] (human, plasma, 25 mg, AUC(0,∞) (SL), individual subjects, 25 mg sublingually as a wafer) is 204 ng·h/mL; in data set [1] (human, plasma, iv, 10 mg, AUC(0,∞) (i.v.), individual subjects, 10 mg as 30 min i.v. infusion), 270 ng·h/mL; in data set [1] (male, human, plasma, 25 mg, AUC(0,∞) (SL), Gmean of eight healthy volunteers, 25 mg sublingually as a wafer), 185 ng·h/mL; in data set [1] (male, human, plasma, iv, 10 mg, AUC(0,∞) (i.v.), Gmean of eight healthy volunteers, 10 mg as 30 min i.v. infusion), 255 ng·h/mL. For the same compound, the clearance in data set [1] (human, plasma, iv, 10 mg, individual subjects, 10 mg as 30 min i.v. infusion) is 997 mL/min; in data set [1] (male, human, plasma, iv, 10 mg, Gmean of eight healthy volunteers, 10 mg as 30 min i.v. infusion) it was 653 mL/min. In addition, the bioavailability in data set [1] (human, plasma, 25 mg, individual subjects, 25 mg SL wafer vs 10 mg i.v., dose adjusted AUC(0,∞)) stood at 30%; in data set [1] (male, human, plasma, 25 mg, median (lower, upper 90% CI limit in text) of eight healthy volunteers, 25 mg SL wafer vs 10 mg i.v.) it was 29%. For the same compound, the “AUC(0,∞) (i.v.)” value in data set [1] (setting [7]) was 289.2 ng·h/mL and 299.4 ng·h/mL and 261.0 ng·h/mL and 167.2 ng·h/mL and 282.7 ng·h/mL and 243.2 ng·h/mL and 254.8 ng·h/mL. The “CL, clearance following i.v. administration” value in data set [1] (setting [7]) was 37.0 L/h and 34.6 L/h and 33.4 L/h and 36.3 L/h and 35.4 L/h and 41.1 L/h and 39.3 L/h. Besides, the “Vz, apparent volume of distribution following i.v. administration” value in data set [1] (setting [7]) is 253 L and 300 L and 164 L and 385 L and 375 L and 126 L and 158 L and 283 L. The “F, bioavailability” value in data set [1] (individual subjects, 25 mg SL wafer vs 10 mg i.v., dose adjusted AUC(0,∞)) was 23% and 38% and 28% and 27%. For the same compound, the “AUC(0,∞) (SL)” value in data set [1] (setting [8]) was 171.9 ng·h/mL and 211.3 ng·h/mL and 166.1 ng·h/mL and 151.6 ng·h/mL and 202.9 ng·h/mL and 162.5 ng·h/mL and 134.3 ng·h/mL. The “t1/2, terminal half-life (SL)” value in data set [1] (setting [8]) was 5.5 h and 3.5 h and 2.3 h and 4.6 h and 5.1 h and 2.9 h and 1.8 h and 3.2 h. The half-life is 3.4 h in data set [1] (male, human, plasma, 25 mg, t1/2, terminal half-life (SL), 25 mg sublingually as a wafer) and 4.5 h in data set [1] (male, human, plasma, iv, 10 mg, t1/2, terminal half-life (i.v.), 10 mg as 30 min i.v. infusion). Besides, the Vd in data set [1] (male, human, plasma, iv, 10 mg, Vz, apparent volume of distribution following i.v. administration, Gmean of eight healthy volunteers, 10 mg as 30 min i.v. infusion) came out at 237 L. In addition, the “extrapolated portion of the AUC(0,∞)” value in data set [1] (SL dosing) is on record as 2-9%; in data set [1] (i.v. dosing), 3-7%. The “onset of adverse events” value in data set [2] (10 mg i.v.) was 6 to 22 min; in data set [2] (25 mg SL dosing) it was 5 to 18 min. Also, the “adverse events terrible taste in mouth, blurred vision, decreased sensation in arm and dizziness, number of each” value in data set [2] (SL) is “one”. In addition, in data set [2] (setting [9]), the “duration of adverse events” value is reported as “less than 1 h”. Also, in data set [2] (setting [9]), the serious adverse events result is given as “no serious adverse events”. In addition, the “severity of adverse events” value in data set [2] (setting [9]) is “mild”. In data set [2] (both routes of administration), the “local and systemic tolerability” value is listed as “very good”. Besides, the “adverse events thought to be related to treatment, number reported” value in data set [2] (both routes, eight volunteers) is “Nineteen”. Further, in data set [2] (i.v.), the “adverse events body feels heavy, dry mouth and visual disturbance, number of each” value is “one”. Moreover, in data set [3], the “bioavailability values reported in the literature” value was 24-32.2%. Also, the “duration of action as an anaesthetic” value in data set [4] (depending on dose) is recorded as “approximately 30 minutes”. Also, the terminal half-life result in data set [4] (racemic drug) was “approximately 3 hours”. Moreover, the “treatment of non-melancholic or anxious depression patients as measured by MADRS” value in data set [5] (6 repeated IV doses 0.5 mg/kg, Wang et al) is reported as “effectively treated”. The “patients who maintained response for at least 7 days” value in data set [5] (setting [10]) is listed as 35%. In addition, the “time to manifestation of antidepressant effects post-infusion” value in data set [5] (setting [10]) was no more than 2 h. Also, the “anti-depressive effects as measured by MADRS” value in data set [5] (single IV dose 0.5 mg/kg, Zarate et al) is “caused anti-depressive effects”. Further, the “efficacy for the treatment of depression, comparison with esketamine” value in data set [5] (single dose IV 0.5 mg/kg, Bahji et al meta-analysis) is listed as “more efficacious than intransal esketamine”.
On to `CN[C@@]1(c2ccccc2Cl)CCCCC1=O` [(R)-ketamine], for which the “antidepressant efficacy compared with (S)-ketamine” value in data set [6] was “superior to (S)-ketamine”.
Regarding `CN[C@]1(c2ccccc2Cl)CCCCC1=O` [S enantiomer, (S)-ketamine], the “potency relative to R enantiomer (times more potent)” value in the data set on NMDA receptors (in humans in vivo) is “approximately 3 times”.
As to `NC1(c2ccccc2Cl)CCCCC1=O` (centres unmarked) [norketamine], in the data set on NMDA receptors, the “potency as NMDA antagonists relative to parent molecules (times less)” value was 5-8 times.

In general, AUC(0-inf) refers to total exposure, with the tail of the curve extrapolated. For orientation: clearance means the rate of elimination divided by the concentration. A high value points to efficient removal. A word on the bioavailability: it is dose-corrected exposure relative to a reference, in per cent. As usually defined, the half-life is the time in which the quantity being followed falls by half. A high value points to slow decline.
